Data taken from paper doi:10.1101/2020.11.06.371534v1 (biorxiv, 2020).
Counter-ions that a name gives are not always drawn. Blank lines part the entries; values can stand above or below the molecule they belong to.

What was measured:
[1] = biological target: T1, Porcine pancreatic elastase (PE) (Sus scrofa, UniProt P00772); test: chromogenic assay, OD […] nm; type: biochemical
[2] = biological target: T1, Porcine pancreatic elastase (PE); test: chromogenic assay, OD […] nm, non-linear regression; type: biochemical
[3] = biological target: T1, Porcine pancreatic elastase (PE); test: microscale thermophoresis, NT-647-NHS labelled enzyme; type: binding

T1 sequence (P00772 27-266): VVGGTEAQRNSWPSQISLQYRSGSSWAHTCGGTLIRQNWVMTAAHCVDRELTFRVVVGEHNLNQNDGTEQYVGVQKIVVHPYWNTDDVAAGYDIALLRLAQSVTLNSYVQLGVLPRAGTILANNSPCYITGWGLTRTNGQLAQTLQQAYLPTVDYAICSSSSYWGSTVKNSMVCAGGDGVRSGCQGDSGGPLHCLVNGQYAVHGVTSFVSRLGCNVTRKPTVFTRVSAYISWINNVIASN

inhibition at 125 µM ([1]; read-out: % inhibition at 125 μM): 31.5%
SMILES: COc1ccc([C@@H]2CC(=O)c3c(O)cc(O)cc3O2)cc1O [Hesperetin, (2S)-5,7-dihydroxy-2-(3-hydroxy-4-methoxyphenyl)-2,3-dihydrochromen-4-one]

IC50 [2]: 15.8 µM
SMILES: CC(C)(C)C(=O)Oc1ccc(S(=O)(=O)Nc2ccccc2C(=O)NCC(=O)O)cc1 [Sivelestat sodium salt hydrate, sodium;2-[[2-[[4-(2,2-dimethylpropanoyloxy)phenyl]sulfonylamino]benzoyl]amino]acetate]

IC50 [2]: 3.53 µM
Kd [3]: 0.0262 µM
SMILES: O=c1cc(-c2ccccc2)oc2cc(O)c(O)c(O)c12 [Baicalein, 5,6,7-trihydroxy-2-phenylchromen-4-one]

inhibition at 100 µM ([1]; read-out: % inhibition at 100 μM): 23.6%
SMILES: O=c1c(O)c(-c2ccccc2)oc2cc(O)cc(O)c12 [Galangin, 3,5,7-trihydroxy-2-phenylchromen-4-one]
